Paper PMC11500159, “Synthesis, α-Glucosidase, α-Amylase, and Aldol Reductase Inhibitory Activity with Molecular Docking Study of Novel Imidazo[1,2-a]pyridine Derivatives” (ACS Omega, 2024)

How the values were obtained:
aldose reductase (AR) = aldose reductase (AR) (Homo sapiens, UniProt P15121); assay: AR inhibitory activity (NADPH consumption, absorbance at 340 nm); type: biochemical; details: Lineweaver-Burk curves; mean ± SEM
Experimental: The activity was assessed using methods that were modified from previously established protocols.[48],[49] The inhibitory activity of AR was assessed by measuring the reduction in absorbance at 340 nm due to the consumption of NADPH. […] The IC50 of the derivatives was calculated from Activity (%) – [inhibitor] graphs for derivatives.

α-glycosidase (α-GLY) = α-glycosidase (α-GLY) (Saccharomyces cerevisiae, UniProt P53341); assay: α-GLY inhibitory activity (para-nitrophenyl-α-D-glucopyranoside substrate); type: biochemical; details: Lineweaver-Burk curves; for Ki: mean ± SEM
Sequence of α-glycosidase (α-GLY) (P53341 whole entry): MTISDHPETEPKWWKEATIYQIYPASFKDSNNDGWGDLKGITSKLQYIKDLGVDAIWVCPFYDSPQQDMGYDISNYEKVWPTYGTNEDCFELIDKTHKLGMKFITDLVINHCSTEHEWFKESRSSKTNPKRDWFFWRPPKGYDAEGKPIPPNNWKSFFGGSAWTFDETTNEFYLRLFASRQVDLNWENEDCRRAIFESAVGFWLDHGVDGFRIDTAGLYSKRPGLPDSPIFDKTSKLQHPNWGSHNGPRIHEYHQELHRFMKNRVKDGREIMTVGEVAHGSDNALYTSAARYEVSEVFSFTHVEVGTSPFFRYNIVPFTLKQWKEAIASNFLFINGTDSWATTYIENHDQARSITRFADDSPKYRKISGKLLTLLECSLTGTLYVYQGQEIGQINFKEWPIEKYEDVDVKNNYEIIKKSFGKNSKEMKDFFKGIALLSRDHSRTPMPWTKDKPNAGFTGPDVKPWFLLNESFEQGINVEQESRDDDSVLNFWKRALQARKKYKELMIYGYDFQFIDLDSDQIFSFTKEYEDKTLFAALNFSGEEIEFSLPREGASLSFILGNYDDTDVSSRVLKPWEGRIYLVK
Experimental: In this analysis, a unit of α-GLY activity is defined as the amount of enzyme required to catalyze the hydrolysis of […] of substrate per minute at a standard pH of 7.4.
(§1) The inhibition effects of the novel imidazo[1,2-a]pyridine-based 1,3,4-thiadiazole derivatives were determined with different inhibitor concentrations (at least five) against AR, α-GLY, and α-AMY. The IC50 of the derivatives was calculated from Activity (%) – [inhibitor] graphs for derivatives. The inhibition types and KI values were found by Lineweaver and Burk’s curves.[50],[51]

α-amylase (α-AMY) = molecular target: T1, α-amylase (α-AMY) (Homo sapiens, UniProt P04746); assay: α-AMY inhibitory activity (starch-iodine method, absorbance at 580 nm); type: biochemical; details: from Activity (%) - [inhibitor] graphs
T1 sequence (P04746 16-511): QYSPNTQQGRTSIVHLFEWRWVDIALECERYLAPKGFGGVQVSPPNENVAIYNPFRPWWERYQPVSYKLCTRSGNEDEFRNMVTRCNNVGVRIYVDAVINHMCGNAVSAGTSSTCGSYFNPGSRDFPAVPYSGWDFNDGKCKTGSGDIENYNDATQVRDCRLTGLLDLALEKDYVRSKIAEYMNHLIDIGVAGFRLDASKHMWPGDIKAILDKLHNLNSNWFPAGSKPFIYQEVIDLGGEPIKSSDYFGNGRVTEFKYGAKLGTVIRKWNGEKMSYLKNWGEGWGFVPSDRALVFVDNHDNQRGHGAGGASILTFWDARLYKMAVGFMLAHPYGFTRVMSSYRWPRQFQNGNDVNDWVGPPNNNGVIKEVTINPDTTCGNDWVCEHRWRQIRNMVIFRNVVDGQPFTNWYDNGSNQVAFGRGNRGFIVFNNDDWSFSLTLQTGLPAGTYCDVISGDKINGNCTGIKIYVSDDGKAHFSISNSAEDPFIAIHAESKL
Experimental: The assay involved preparing a substrate solution of starch in NaOH, adjusting the pH with HCl, and diluting the solution to volume. Enzyme and sample solutions were preincubated, mixed with the substrate, and incubated again. The reaction was stopped with HCl, and the absorbance was measured at 580 nm.
as §1

Row | Compound | Ki (aldose reductase (AR)) | Ki (α-glycosidase (α-GLY)) | IC50 (α-amylase (α-AMY)) | melting point | α-GLY inhibition type (α-glycosidase (α-GLY))
1 | O=C(CSc1nnc(Nc2ccccc2)s1)Nc1ccc(-c2cn3ccccc3n2)cc1 [8a, 2-[(5-Phenylamino-1,3,4-thiadiazol-2-yl)thio]-N-[4-(imidazo[1,2-a]pyridin-2-yl)phenyl] Acetamide] | 0.0349 ± 0.00359 µM | 33 ± 1.25 µM | 142 µM |  | 
2 | CCc1ccc(Nc2nnc(SCC(=O)Nc3ccc(-c4cn5ccccc5n4)cc3)s2)cc1 [8b, 2-[(5-(4-Ethylphenyl)amino-1,3,4-thiadiazol-2-yl)thio]-N-[4-(imidazo[1,2-a]pyridin-2-yl)phenyl]acetamide] |  |  | 113 µM | 244.2 °C | noncompetitive inhibition
3 | O=C(CSc1nnc(NC2CCCCC2)s1)Nc1ccc(-c2cn3ccccc3n2)cc1 [8c, 2-[(5-Cyclohexylamino-1,3,4-thiadiazol-2-yl)thio]-N-[4-(imidazo[1,2-a]pyridin-2-yl)phenyl] Acetamide] | 0.14 ± 0.0133 µM | 77.5 ± 5.74 µM |  |  | 
4 | CCNc1nnc(SCC(=O)Nc2ccc(-c3cn4ccccc4n3)cc2)s1 [8d, 2-[(5-Ethylamino-1,3,4-thiadiazol-2-yl)thio]-N-[4-(imidazo[1,2-a]pyridin-2-yl)phenyl] Acetamide] | 0.0785 ± 0.00824 µM | 88.7 ± 17.7 µM | 122 µM |  | 
5 | Cc1ccc(Nc2nnc(SCC(=O)Nc3ccc(-c4cn5ccccc5n4)cc3)s2)cc1 [8e, 2-[(5-(4-Methylphenyl)amino-1,3,4-thiadiazol-2-yl)thio]-N-[4-(imidazo[1,2-a]pyridin-2-yl)phenyl]acetamide] |  |  |  | 130.1 °C | competitive inhibition
6 | O=C(CSc1nnc(Nc2ccc(Cl)cc2)s1)Nc1ccc(-c2cn3ccccc3n2)cc1 [8f, 2-[(5-(4-Chlorophenyl)amino-1,3,4-thiadiazol-2-yl)thio]-N-[4-(imidazo[1,2-a]pyridin-2-yl)phenyl]acetamide] |  |  | 142 µM | 265 °C | 
7 | O=C(CSc1nnc(Nc2cccc(Cl)c2)s1)Nc1ccc(-c2cn3ccccc3n2)cc1 [8g, 2-[(5-(3-Chlorophenyl)amino-1,3,4-thiadiazol-2-yl)thio]-N-[4-(imidazo[1,2-a]pyridin-2-yl)phenyl]acetamide] |  |  | 132 µM | 199.2 °C | 
8 | COc1cccc(Nc2nnc(SCC(=O)Nc3ccc(-c4cn5ccccc5n4)cc3)s2)c1 [8h, 2-[(5-(3-Methoxyphenyl)amino-1,3,4-thiadiazol-2-yl)thio]-N-[4-(imidazo[1,2-a]pyridin-2-yl)phenyl]acetamide] |  |  | 143 µM | 138.8 °C | 
9 | COc1ccccc1Nc1nnc(SCC(=O)Nc2ccc(-c3cn4ccccc4n3)cc2)s1 [8i, 2-[(5-(2-Methoxyphenyl)amino-1,3,4-thiadiazol-2-yl)thio]-N-[4-(imidazo[1,2-a]pyridin-2-yl)phenyl]acetamide] |  |  | 154 µM | 104.9 °C | 
10 | O=C(CSc1nnc(Nc2ccccc2Cl)s1)Nc1ccc(-c2cn3ccccc3n2)cc1 [8j, 2-[(5-(2-Chlorophenyl)amino-1,3,4-thiadiazol-2-yl)thio]-N-[4-(imidazo[1,2-a]pyridin-2-yl)phenyl]acetamide] |  |  | 81.1 µM | 129 °C | 
11 | COc1ccc(Nc2nnc(SCC(=O)Nc3ccc(-c4cn5ccccc5n4)cc3)s2)cc1 [8k, 2-[(5-(4-Methoxyphenyl)amino-1,3,4-thiadiazol-2-yl)thio]-N-[4-(imidazo[1,2-a]pyridin-2-yl)phenyl]acetamide] |  |  | 113 µM | 216.5 °C | 
